# From US7799775B2, “Pyrimidine derivatives” (ASKA Pharmaceutical Co., Ltd., priority 2004, dated 2010)
# Structures can show the parent of a compound that is named as a salt.
# How the values were obtained:
# 5-HT3 receptor = biological target: T1, 5-HT3 receptor (Rattus norvegicus, UniProt P35563); experiment: Measurement of 5-HT3 receptor antagonistic action on rats (in vivo): inhibition of serotonin-induced bradycardia (BJ reflex); settings: anesthetized SD male rats, dose 1.0 mg/kg intravenous, serotonin 300 μg/kg 10 minutes later
# T1 construct: from tissue; host or cells: whole animal (SD male rats), serotonin-induced bradycardia
# T1 sequence (P35563 24-483): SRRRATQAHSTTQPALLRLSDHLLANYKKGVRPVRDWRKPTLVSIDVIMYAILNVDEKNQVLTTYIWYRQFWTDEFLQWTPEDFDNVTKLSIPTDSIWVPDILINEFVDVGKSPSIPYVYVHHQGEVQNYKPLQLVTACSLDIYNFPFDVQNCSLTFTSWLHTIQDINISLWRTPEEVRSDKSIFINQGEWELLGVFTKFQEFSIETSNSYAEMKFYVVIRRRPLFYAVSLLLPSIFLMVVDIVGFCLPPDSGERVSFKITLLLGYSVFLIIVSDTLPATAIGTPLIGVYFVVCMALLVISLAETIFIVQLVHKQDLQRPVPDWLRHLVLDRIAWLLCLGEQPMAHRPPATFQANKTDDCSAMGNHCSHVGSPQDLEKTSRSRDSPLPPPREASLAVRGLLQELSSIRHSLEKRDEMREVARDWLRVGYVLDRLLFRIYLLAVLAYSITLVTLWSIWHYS
# Description: (4) Measurement of 5-HT3 Receptor Antagonistic Action on Rats (in Vivo)
# SD male rats (weighing 270-410 g) were anesthetized by peritoneal administration of 1.25 g/kg of urethane (as dissolved in distilled water), and then catheters for measuring blood pressure and heart rate were inserted into their left carotid artery and a catheter for administration of test compound was inserted into their […]. After their blood pressure and heart rate were stabilized, 300 μg/kg of 5-hydroxytryptamine creatinine sulfate (serotonin) was rapidly intravenously administered and thereby induced transient bradycardiac reaction (BC 1) was observed. When the blood pressure and heart rate were re-stabilized after the serotonic administration, the test compounds were intravenously administered to the rats. Ten minutes thereafter, 300 μg/kg of serotonin was once again rapidly intravenously administered and thereby induced transient bradycardiac reaction (BC 2) was observed. Percent inhibition of bradycardia manifestation of each test compound, i.e., BJ reflex inhibition, can be calculated according to the following expression: […]
# [1] = system: rats under restraint stress; experiment: Measurement of defecation acceleration in rats under restraint stress; type: in vivo, rat; settings: 1 hour restraint stress, group average (Normal 1.7, Control 6.8)
# Description: (5) Measurement of Defecation Acceleration in Rats under Restraint Stress […] Feed and drinking water were left for their free ingestion until the morning of the day on which the test was given. On the day of the experiment, test compounds were orally administered and positive control solution (the used compounds were dissolved in 1N-hydrochloric acid and diluted with a suitable amount of saline) was administered intraperitoneally. Five (5) minutes thereafter, under lightly anesthetized condition, the rats were placed under restraint stress, with their upper half of the bodies including the front feet immobilized with gum tape. The restraint stress loading was conducted for an hour, and the number of excrements discharged during that period was counted. […] Those compounds which were used as the positive control chemicals used in the acceleration of defecation in rats under restraint stress are identified with the following structures.
# 5-HT1A receptor = biological target: T2, 5-HT1A receptor (Rattus norvegicus, UniProt P19327); experiment: Measurement of 5-HT1A receptor agonistic action on rats (in vivo): lower lip retraction and flat body posture; settings: SD male rats, 10 mg/kg intraperitoneal; maximum of group evaluation points, 4 grades 0-3, observed 5-30 min after administration
# T2 construct: from tissue; host or cells: whole animal (SD male rats), behavioural read-out
# T2 sequence (P19327 1-422): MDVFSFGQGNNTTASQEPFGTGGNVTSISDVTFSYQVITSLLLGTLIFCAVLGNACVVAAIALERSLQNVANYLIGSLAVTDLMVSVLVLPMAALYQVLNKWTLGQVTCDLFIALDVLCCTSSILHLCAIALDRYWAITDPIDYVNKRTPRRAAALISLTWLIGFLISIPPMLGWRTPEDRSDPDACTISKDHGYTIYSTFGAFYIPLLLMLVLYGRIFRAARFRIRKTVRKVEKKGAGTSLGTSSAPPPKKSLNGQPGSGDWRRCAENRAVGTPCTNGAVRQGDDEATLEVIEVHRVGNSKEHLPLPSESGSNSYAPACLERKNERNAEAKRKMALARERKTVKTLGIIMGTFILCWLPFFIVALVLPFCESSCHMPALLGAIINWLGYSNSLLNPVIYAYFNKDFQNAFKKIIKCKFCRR
# Description: (3) Measurement of 5-HT1A Receptor Agonistic Action on Rats (in Vivo):
# Seven weeks old SD male rats were divided into 4-5 rats per group which were accustomized to the experimental environments twice. A week after the second accustomization, the rats were put into a transparent plastic case, and 10 mg/kg of a test compound (as dissolved in 1N-hydrochloric acid and diluted with suitable amount of saline) was intraperitoneally administered thereto. Immediately before the administration and 5, 10, 20 and 30 minutes after the administration, behaviors of the rats were observed as to lower lip retraction (LLP) and flat body posture (FBP). The results were evaluated in 4 grades (0: no reaction, 1: feeble reaction, 2: medium reaction, 3: maximum reaction).
# human 5-HT3 receptor = biological target: T3, human 5-HT3 receptor (Homo sapiens, UniProt P46098); experiment: Measurement of affinity to human 5-HT3 receptor (in vitro), [3H]BRL-43694 binding; settings: test compound 100 nmols/L; [3H]BRL-43694 0.5 nmols/L; HEK-293 cell membrane expressing human 5-HT3 receptor; read-out: Percent Inhibition (%) on Each Receptor's Binding at 10^−7M, 5-HT3
# T3 construct: purchased BIOLINKS K.K; host or cells: HEK-293 cells (membrane preparation)
# T3 sequence (P46098 24-478): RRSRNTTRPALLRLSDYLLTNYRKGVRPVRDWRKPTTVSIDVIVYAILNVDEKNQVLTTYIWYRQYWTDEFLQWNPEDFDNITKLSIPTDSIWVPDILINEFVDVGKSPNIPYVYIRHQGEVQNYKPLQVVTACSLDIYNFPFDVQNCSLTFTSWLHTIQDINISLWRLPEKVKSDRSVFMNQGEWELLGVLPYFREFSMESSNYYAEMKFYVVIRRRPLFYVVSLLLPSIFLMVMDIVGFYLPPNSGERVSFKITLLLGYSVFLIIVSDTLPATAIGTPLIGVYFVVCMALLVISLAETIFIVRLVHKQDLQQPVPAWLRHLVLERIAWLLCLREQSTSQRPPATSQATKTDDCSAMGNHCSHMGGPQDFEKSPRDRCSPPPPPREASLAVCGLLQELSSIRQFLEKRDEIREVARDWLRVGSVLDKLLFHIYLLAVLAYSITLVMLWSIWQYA
# Outline: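 Membranes from HEK-293 cells expressing the receptor were incubated with 0.5 nmol/L radioligand and compound for 60 min at 25 °C in Tris/MgCl2/EDTA buffer, pH 7.5. Bound radioactivity was collected by filtration and counted. Percent inhibition was corrected for non-specific binding defined with 10 μmol/L tropisetron; compounds were tested at 100 nmol/L.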
# human 5-HT1A receptor = biological target: T4, human 5-HT1A receptor (Homo sapiens, UniProt P08908); experiment: Affinity measurement of the compounds to human 5-HT1A receptor (in vitro), [3H]8-OH-DPAT binding; settings: test compound 100 nmols/L; [3H]8-OH-DPAT 0.25 nmols/L; CHO cell membrane expressing human 5-HT1A receptor; read-out: Percent Inhibition (%) on Each Receptor's Binding at 10^−7M, 5-HT1A
# T4 construct: purchased Packard Bioscience; host or cells: CHO cells (membrane preparation)
# T4 sequence (P08908 1-422): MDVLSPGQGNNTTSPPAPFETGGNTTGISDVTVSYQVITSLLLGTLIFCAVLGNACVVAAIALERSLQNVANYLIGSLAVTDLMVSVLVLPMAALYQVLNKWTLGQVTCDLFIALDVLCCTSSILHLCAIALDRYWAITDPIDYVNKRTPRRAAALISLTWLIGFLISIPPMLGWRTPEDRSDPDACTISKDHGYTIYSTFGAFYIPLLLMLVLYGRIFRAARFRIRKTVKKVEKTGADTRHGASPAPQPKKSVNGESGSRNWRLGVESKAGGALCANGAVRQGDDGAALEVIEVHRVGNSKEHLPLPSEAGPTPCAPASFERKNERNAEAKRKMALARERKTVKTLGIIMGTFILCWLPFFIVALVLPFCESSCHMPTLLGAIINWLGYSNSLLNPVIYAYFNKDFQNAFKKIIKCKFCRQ
# Outline: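 Membranes from CHO cells expressing human 5-HT1A were incubated 60 min at 27 °C with 0.25 nmol/L [3H]8-OH-DPAT and compound in Tris/MgSO4/EDTA/ascorbate buffer, pH 7.4. Bound radioactivity was collected on PEI-soaked GF/C filters and counted; percent inhibition was corrected for non-specific binding defined with 10 μmol/L 8-OH-DPAT.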
# [2] = 1 mg/kg intraperitoneal administration
# [3] = 0.3 mg/kg intraperitoneal administration
# [4] = 3 mg/kg intraperitoneal administration
smiles,measurement,setting,value
"c1ccc2c(N3CCNCC3)nccc2c1 [Production Example 35, 1-piperazin-1-ylisoquinoline]",BC Inhibition (%),5-HT3 receptor,94.6%
"O=c1[nH]c(SCCCN2CCN(c3ccccn3)CC2)nc2sc3c(c12)CCCC3 [Example 2-2, 2-[3-(4-pyridin-2-ylpiperazin-1-yl)propylthio]-5,6,7,8-tetrahydro-3H-benzo[4,5]thieno[2,3-d]pyrimidin-4-one]",melting point,,190.2 to 191.6 °C
"Cl.O=C1CC2(CCCC2)CC(=O)N1CCCCN1CCN(c2ncccn2)CC1 [buspirone, reference compound]",Number of excrements,[1]; [2],4.3
"Cc1ccc2ccnc(N3CCNCC3)c2c1 [Production Example 46, 7-methyl-1-piperazin-1-ylisoquinoline]",BC Inhibition (%),5-HT3 receptor,94.4%
"CCOC(=O)c1sc2nc(SCCCN3CCN(c4ccccn4)CC3)[nH]c(=O)c2c1C [Example 2-3, 5-methyl-4-oxo-2-[3-(4-pyridin-2-ylpiperazin-1-yl)propylthio]-3,4-dihydrothieno[2,3-d]pyrimidine-6-carboxylic acid ethyl ester]",melting point,,160.1 to 161.8 °C
"CN1[C@@H]2CCC[C@H]1C[C@@H](NC(=O)c1nn(C)c3ccccc13)C2.Cl [granisetron, reference compound]",Number of excrements,[1]; [3],4.3
"Cc1[nH]cnc1CN1CCc2c(c3ccccc3n2C)C1=O.Cl [alosetron, reference compound]",Number of excrements,[1]; [3],5.2
same,Number of excrements,[1]; [2],4.1
same,Number of excrements,[1]; [4],3.7
"CN1CCN(c2nccc3ccc(Cl)cc23)CC1 [Production Example 50, 7-chloro-1-(4-methylpiperazin-1-yl)isoquinoline]",BC Inhibition (%),5-HT3 receptor,86.8%
"Oc1ccc2ccnc(N3CCNCC3)c2c1 [Production Example 95, 7-hydroxy-1-piperazin-1-ylisoquinoline hydrochloride]",BC Inhibition (%),5-HT3 receptor,96.0%
"Cc1nccn1C[C@H]1CCc2c(c3cccc4c3n2CCC4)C1=O [cilansetron, reference compound]",Number of excrements,[1]; [2],4.0
"O=C(O)CC(O)(CC(=O)O)C(=O)O.O=C1[C@@H]2[C@H]3CC[C@H](C3)[C@@H]2C(=O)N1CCCCN1CCN(c2ncccn2)CC1 [tandospirone, reference compound]",Number of excrements,[1]; [2],5.7
same,Number of excrements,[1]; [4],4.3
same,Number of excrements,[1]; 10 mg/kg intraperitoneal administration,3.8
"COc1ccc2ccnc(N3CCNCC3)c2c1 [Production Example 34, 7-methoxy-1-piperazin-1-ylisoquinoline]","5-HT1A Receptor Agonistic Action on Rats, FBP",5-HT1A receptor,2.8
same,"5-HT1A Receptor Agonistic Action on Rats, LLR",5-HT1A receptor,3.0
same,BC Inhibition (%),5-HT3 receptor,92.0%
"Cc1cc(N2CCN(CCCSc3nc4sc5c(c4c(=O)[nH]3)CCNC5)CC2)nc2ccccc12 [Example 2-20, 2-[3-[4-(4-methylquinolin-2-yl)piperazin-1-yl]propylthio]-3,4,5,6,7,8-hexahydro-4-oxo-9-thia-1,3,7-triaza-9H-fluorene trihydrochloride]",inhibition at 0.1 µM,human 5-HT3 receptor,52.8%
same,inhibition at 0.1 µM,human 5-HT1A receptor,81.6%
"O=c1c2c(nc(CCCCN3CCN(c4ccc5ccccc5n4)CC3)n1Cc1ccccc1)CCCC2 [Example 7-4, 3-benzyl-2-[4-(4-quinolin-2-ylpiperazin-1-yl)butyl]-5,6,7,8-tetrahydro-3H-quinazolin-4-one]",inhibition at 0.1 µM,human 5-HT3 receptor,61.2%
same,inhibition at 0.1 µM,human 5-HT1A receptor,85%
"CCC1CCc2nc(CCCCN3CCN(c4ccc5ccccc5n4)CC3)n(N)c(=O)c2C1 (stereo not shown) [Example 4-61, 3-amino-6-ethyl-2-[4-(4-quinolin-2-ylpiperazin-1-yl)butyl]-5,6,7,8-tetrahydro-3H-quinazolin-4-one]",inhibition at 0.1 µM,human 5-HT3 receptor,88.7%
same,inhibition at 0.1 µM,human 5-HT1A receptor,96.8%
"Cn1c(NCCCN2CCN(c3ccc4ccccc4n3)CC2)nc2ccccc2c1=O [Example 7-30, 3-methyl-2-[3-(4-quinolin-2-ylpiperazin-1-yl)propylamine]-3H-quinazolin-4-one]",inhibition at 0.1 µM,human 5-HT3 receptor,92.4%
same,inhibition at 0.1 µM,human 5-HT1A receptor,73.5%
"Cn1c(CCCCN2CCN(c3ccc4ccccc4n3)CC2)nc2c(cnn2C)c1=O [Example 7-19, 1,5-dimethyl-6-[4-(4-quinolin-2-ylpiperazin-1-yl)butyl]-1,5-dihydropyrazolo[3,4-d]pyrimidin-4-one]",inhibition at 0.1 µM,human 5-HT3 receptor,7.4%
same,inhibition at 0.1 µM,human 5-HT1A receptor,85%
